According to patent US20070037800A1, “Method of treating neurological disorders using clotrimazole and derivatives thereof” (EnVivo Pharmaceuticals, Inc., priority 2005, published 2007):
Where “and” joins values, the source holds several entries; their conditions need not be identical. Equal entries are not always repeated.

Columns and labels:
[1] = tested on: HD model flies (elav-GAL4 UAS-htt128Q); assay: Assay of locomotor activity (climbing speed) using the transgenic Drosophila HD model; format: in vivo; parameters: Early Speed Effect Size, Summary / Late Speed Effect Size, Summary / Early Speed Effect Size / Late Speed Effect Size / Early Speed Adj Value / Late Speed Adj Value / Early Speed Effect Size, combined campaigns / Late Speed Effect Size, combined campaigns: unit not given here; conditions: for Early Speed Effect Size, combined campaigns / Early Speed Percent TSA, combined campaigns / Early Speed Effect Size / Early Speed Adj Value / Early Speed Percent TSA: days 1 to 7; for Early Speed Effect Size, combined campaigns / Early Speed Percent TSA, combined campaigns / Late Speed Effect Size, combined campaigns / Late Speed Percent TSA, combined campaigns: drawing 84; for Late Speed Effect Size, combined campaigns / Late Speed Percent TSA, combined campaigns / Late Speed Percent TSA / Late Speed Adj Value / Late Speed Effect Size: days 8 to 10; for Early Speed Effect Size, Summary / Early Speed Percent TSA, Summary: days 1-7; for Late Speed Effect Size, Summary / Late Speed Percent TSA, Summary: days 8-10; for Early Speed Effect Size: food conc 50 (unit not printed; b38: μM); for Early Speed Effect Size / Late Speed Effect Size: vs DMSO carrier; for Early Speed Effect Size / Early Speed Adj Value / Early Speed Percent TSA / Late Speed Percent TSA / Late Speed Adj Value / Late Speed Effect Size: single campaigns; for Early Speed Percent TSA: effect size as percentage of positive control TSA; for Late Speed Percent TSA: effect size as percentage of TSA
Protocol: Female “activator” or “driver” flies were engineered to contain the neuronal specific drivers elav-GAL4 or nirvana-GAL4 in a heat shock-hid Y (phs-hidY or HS-hid+ on Y chomosome) background (Starz-Gaiano et al., 2001). The hid gene is a pro-apoptotic gene, which is expressed in this line by a heat inducible promoter. These flies can be heat shocked in bottles twice over 2 days for 2 hours to kill male larvae and thereby produce massive numbers of elav-GAL4 or nirvana-GAL4 virgin females.
For the mass production of males (either UAS-htt128Q[F27B]/UAS-htt128Q[F27B], the disease transgenes were moved into lines that contain an attached X-chromosome with the same phs-hid element (X^XPhs-hidY) used above. In this scheme the hid gene is present only in female flies and therefore is used to produce large numbers of male flies by heat shock. The massive collection of virgin female elav-GAL4 flies are crossed with the massive collection of males that contain the silent disease-transgene. Their progeny, the F1 generation, are the “assay flies” (e.g., elav-GAL4UAS-htt128Q[F27B]). These assay flies are robotically distributed into drugged assay vials.
The HD Drosophila model express exons 1 to 4 of the human huntingtin gene with 128Q repeats in exon 1. The construct was cloned into the Drosophila transformation vector, pUAST. These were then crossed to GAL4 driver lines that direct expression either to the eye (GMR-GAL4 promoter) or to neurons (elav-GAL4 promoter). […] Progressive degeneration of the photoreceptors was observed after several days of adult life. The properties of the HD128Q flies were consistent with those reported by others for two other strains in which exon-1 containing expanded repeats was expressed in the eye (Jackson et al., 1998; Steffan et al., 2001—US20040142859). To test the effects on motor function of the HD mutation, HD128Q lines were examined in which the transgene was expressed in all neurons. Motor function was assayed by tapping flies in a vial to the bottom and measuring the number of flies that are able to climb to a specified height within a specific length of time. When tapped to the bottom of a vial, wild-type flies rapidly climb to the top, where most of them remain. […] The decline in motor performance was progressive, leading to early death. […] The HD128Q model thus has a functional deficit that in its phenotypic and neuropathological characteristics appears to be related to that seen in the human disease. Moreover, as the deficit is quantifiable and reproducible, it is suitable for automated high-throughput screening.
Standard environmental conditions were followed to establish that different metrics detect differences between disease and control flies. A comparison of compound-treated HD flies and untreated HD flies was also included. The positive control compound tested was the Histone Deacetylase (HDAC) inhibitor Trichostatin-A (TSA).
In an assay run (typically corresponding to one day of an entire multi-day assay) the following process was followed. Each tube was dropped onto a surface, causing the flies to fall to the bottom of the tube and be subjected to impact shock stimulation. Their immediate negative geotaxis response to that event was thereafter captured in a 7.5 second movie. For each tube, this step was repeated five times, giving a total of five repeat videos per tube and run. The raw data for each video were analyzed and trajectories following the movements of individual flies in a tube were generated. The method for analyzing fly trajectories is described in published U.S. Patent Application 2004/0076318A1, which is hereby incorporated by reference in its entirety. The trajectories consisted of a list of x- and y-coordinates mapping out the positions of all the flies in the video, as well as measurements of size, orientation, length and width of the flies, with one list entry for every frame from when the fly started moving in one frame until it stopped in another. […]

[2] = tested on: R6/2 transgenic mice; assay: Rotarod test in R6/2 transgenic mouse model of Huntington's disease; format: in vivo
Protocol: The rotarod test and body weight measurements were used to assess the therapeutic effects of clotrimazole in R6/2 transgenic mice. R6/2 and WT male mice at 4 weeks of age were trained 3 consecutive days on the accelerating rotarod. Each training day consisted of four sessions. After the training was complete, the animals were reassigned to new groups to create statistically homogenous cohorts. At 5 weeks of age, animals (n=10 per group) were dosed twice daily, intraperitoneally (IP) with clotrimazole at either 2 mg/kg or 10 mg/kg (equal to 4 and 20 mg/kg per day). Rotarod testing was performed at 6, 8, 10, and 12 weeks of age as described above. Body weights were collected every week.

[3] = tested on: R6/2 mice; assay: Cage climbing and rearing in R6/2 mice; format: in vivo, mouse; conditions: for Cage climbing: 12 weeks
From the text: Cage climbing analysis involves filming a 10cm tall cylindrical cage into which an R6/2 (+/−drug) or WT mouse is placed. The mouse is allowed to move naturally ad libetum for a five minute session within the confines of the cage, while events such as rearing occurrences, climbing time and latency to climb are documented. Cage climbing and rearing data were collected at 12 weeks in this study.

[4] = tested on: microglia activation; conditions: has been shown; no source given; cited from earlier work
[5] = conc 50, campaigns drawing 83, drawing 85
[6] = conc 100, campaigns drawing 74, drawing 76, drawing 83, drawing 89
[7] = conc 150, campaigns drawing 83, drawing 86, drawing 88, drawing 89
[8] = dose 50, weighted average of campaigns drawing 83, drawing 84 (Table 1)
[9] = dose 100, weighted average of campaigns drawing 74, drawing 76, drawing 83, drawing 84 (Table 1)
[10] = dose 150, weighted average of campaigns drawing 83, drawing 84 (Table 1)
[11] = food conc 50, listed as CLOTRIMAZOLE

## Clc1ccccc1C(c1ccccc1)(c1ccccc1)n1ccnc1 [clotrimazole]
[1]; [5]
  Early Speed Effect Size, combined campaigns: 0.867
  Early Speed Percent TSA, combined campaigns: 37.7%
  Late Speed Effect Size, combined campaigns: 1.076
  Late Speed Percent TSA, combined campaigns: 36.3%
[1]; [6]
  Early Speed Effect Size, combined campaigns: 0.89
  Early Speed Percent TSA, combined campaigns: 32%
  Late Speed Effect Size, combined campaigns: 1.372
  Late Speed Percent TSA, combined campaigns: 36.8%
[1]; [7]
  Early Speed Effect Size, combined campaigns: 1.211
  Early Speed Percent TSA, combined campaigns: 43.8%
  Late Speed Effect Size, combined campaigns: 1.664
  Late Speed Percent TSA, combined campaigns: 42.8%
[1]; [8]
  Early Speed Effect Size, Summary: 0.8
  Early Speed Percent TSA, Summary: 25.9%
  Late Speed Effect Size, Summary: 1.43
  Late Speed Percent TSA, Summary: 35.7%
[1]; [9]
  Early Speed Effect Size, Summary: 1.13
  Early Speed Percent TSA, Summary: 39.6%
  Late Speed Effect Size, Summary: 1.42
  Late Speed Percent TSA, Summary: 39.6%
[1]; [10]
  Early Speed Effect Size, Summary: 1.35
  Early Speed Percent TSA, Summary: 41.6%
  Late Speed Effect Size, Summary: 1.8
  Late Speed Percent TSA, Summary: 42.7%
[1]; doses 50, 100, 150 (Table 1)
  Climbing assay, dose dependence: dose-dependent effect
[1]
  Early Speed Effect Size: 0.73 and 0.88
[1]; listed as CLOTRIMAZOLE
  Early Speed Effect Size: 0.725 and 0.882 and 0.932
[1]; food conc 50 (μM)
  Early Speed Adj Value: 11.2 and 10.98 and 10.15
[1]; food conc 50
  Early Speed Percent TSA: 26.3% and 25.4%
  Late Speed Percent TSA: 38.8% and 31.5%
  Late Speed Adj Value: 6.587 and 5.802 and 6.193
  Late Speed Effect Size: 1.46 and 1.39
[1]; [11]
  Early Speed Percent TSA: 26.3% and 25.4% and 48.8%
  Late Speed Percent TSA: 38.8% and 31.5% and 36.8%
  Late Speed Effect Size: 1.458 and 1.39 and 0.767
[1]; food conc 100 (μM)
  Early Speed Adj Value: 10.12 and 11.32 and 11.4873 and 10.63 and 10.84
[1]; food conc 100
  Late Speed Adj Value: 5.805 and 5.534 and 6.208 and 6.981 and 6.155
[1]; food conc 150 (unit not given)
  Early Speed Adj Value: 11.15 and 11.68 and 10.57 and 10.74 and 11.13
[1]; food conc 150
  Late Speed Adj Value: 6.189 and 6.817 and 5.855 and 5.983 and 6.595
[1]; vs carrier controls, metrics early speed (days 1-7) and late speed (days 8-10)
  Effect in Drosophila model of HD: reproducible positive effects
[2]; 20 mg/kg/day IP-BID, any time point tested (6, 8, 10, 12 weeks of age)
  Rotarod effect: did not have a statistically significant effect
[2]; at the higher dose as printed, P=0.01 (Wilcoxon test)
  Rotarod effect vs vehicle-treated R6/2 animals: statistically-significant effect
[2]; low dose of 4 mg/kg/day (2 mg/kg IP twice daily), preliminary data
  Behavior in vivo (rotarod): positively affects
[3]; 4 mg/kg (low dose)
  Cage climbing: Statistically significant improvement
[3]; 20 mg/kg (high dose)
  Cage climbing: Statistically significant improvement
[3]; 4 and 20 mg/kg dosing, preliminary data
  Motor performance by cage climbing and rearing: significantly improved the motor performance
[4]
  Inhibition of microglia activation: potent inhibitor
